This is an account of results in patent US8420692B1, “Heterocyclic and carbonate derivatives of NDGA and their use as new anti-HIV and anti-cancer agents” (The Johns Hopkins University, priority 2006, dated 2013).

Where a name gives a salt, the structure may show the parent alone.

In data set [1] the test system is Vero cell (African green monkey kidney cells). Kind of data set: MTT-based cytotoxicity / proliferation assay, Vero. The conditions noted are these: 48 hrs, 37° C. The format is cell-based. As for the experimental part:
The cytotoxicity of P4N against Vero cells and human cancer cells HEP3B, HT29 and MCF7 was analyzed using an MTT [3-(4,5-dimethylthiazol-2-yl)-2,5-diphenyltetrazolium bromide]-based assay (Sigma). The absorbance of OD570 was a measurement of formazon crystals solubilized in DMSO from metabolically active cells. Procedures were discussed in Huang R C C, et al. in Antiviral Res 58, 57-64 2003.^10
We have previously shown that M4N arrests tumor cells growth at G2-M phase of the cell cycle by reducing the level of Cdc2 protein and kinase activity,^17,18 and induces apoptosis by suppressing survivin gene expression and protein stability and activating the mitochondrial apoptosis pathway.^17 M4N is able to reverse the multidrug resistance by inhibiting the Sp1-regulated MDR1 gene expression and preventing the synthesis of p-glycoprotein (Pgp).^24 To investigate the effect of water soluble NDGA derivative P4N on growth of the transformed cells, four cell lines, Vero cell (African green monkey kidney cells), human liver cancer line Hep3B, colon cancer cell line HT29, and human breast cancer line MCF-7 were selected for testing. The Vero cell line is aneuploid.

In data set [2] the test system is HSV-2. The data set is described as follows: Efficacy against HSV-2 in a mouse vaginal model. The class given is in vivo. The following applies: for Toxicity in animals: female mice treated locally with 10 mM. Here is the method:
The efficacies of P4N against HSV-2 in a mouse vaginal model system have been examined. Progestin treated female CF-1 mice (10 per group) were infected with HSV-2 in the absence or presence of P4N (in PBS). At the end of three days, the vaginal lavages were collected from the washings of the vaginal regions. The status of the vaginal HSV-2 infection and replication were examined by their cytopathic effects on cultured human foreskin fibroblast cells. Monitoring and scoring were carried out by three persons independently. […] At 10 mM concentration only 2 of 10 mice were weakly infected.

Data set [3] concerns Sp1 cognate binding site DNA (dsOLIGOsp). The data set is described as follows: 1D NMR titration of the Sp1 cognate binding site. The following applies: FIG. 3. The source says:
FIG. 3: 1D 1H NMR spectra of free DNA, free P4N and 1:1 molar ratio DNA:P4N. The resonances with the largest chemical shift perturbation are indicated
The titration of the Sp1 cognate binding site with P4N was further studied by 1D NMR (FIG. 3). […] Changes in the chemical shifts and the line-widths of both the DNA and the drug indicate structural perturbations of the DNA upon titration with P4N. […] This is reflected in the split of the well resolved resonances of the carbon-nitrogen ring CH2 protons (which lie in an area of the spectrum that is free of DNA peaks). As shown on both FIG. 3 and FIG. 4 the largest perturbations of the P4N chemical shifts induced upon binding are those of the CH3 protons, aromatic protons and the carbon-nitrogen ring CH2 protons. […] Binding of Sp1 to dsOLIGOsp and binding of P4N to dsOLIGOsp are both reversible as shown in a competitive band-shift analysis (FIG. 6).

The subject of data set [4] is COS cells. The data set is described as follows: Growth inhibition of untransfected COS cells. The class given is cell-based. The following applies: ≦1 μM, FIG. 9. Here is the method:
FIG. 9: Inhibition of HIV Tat-Regulated transactivation by Compound 5b P4N. The COS cells were co-transfected with a Tat-producing plasmid and a plasmid containing the HIV LTR linked to the SeAP reporter gene. Transfected cells were treated with various concentrations of 5b P4N. After 48 h, aliquots of media were removed and analysis of SeAP activity was performed. The percent inhibition of SeAP activity by 5b P4N ? was calculated in comparison with the percent of growth inhibition of untransfected COS cells by P4N ?

Data set [5] concerns HIV Tat-regulated transactivation. Kind of data set: cells. The class given is cell-based. The following applies: for Inhibition (%) of HIV Tat-regulated Transactivation in COS Cells: average of three experiments. Here is the method: The COS cells were co-transfected with a Tat-producing plasmid and a plasmid containing the HIV LTR linked to the SeAP reporter gene. Transfected cells were treated with various concentrations of 5b P4N. After 48 h, aliquots of media were removed and analysis of SeAP activity was performed. The percent inhibition of SeAP activity by 5b P4N ? was calculated in comparison with the percent of growth inhibition of untransfected COS cells by P4N ?
The medium used for dilution of compounds and maintenance of cultures during the assay was the same as described above. Cultures were maintained in disposable tissue culture labware at 37° C. in a humidified atmosphere of CO2 (5.0%) in air. Compounds were dissolved as stock solutions in water or dimethyl sulfoxide (DMSO) at the concentration of 10 mM. The stock solutions were diluted with H2O (5a-d) or DMSO (6a,b and 7) and dilute by medium to the desired concentration by a 30-s vortex just before addition into the cell culture. Triplicate cell samples were seeded at density of ˜1.5×10^4 cell per well in Libro 24-well flat-bottom culture dishes (17-mm diameter), which were incubated for 24 h until they reached 50% confluence. The cells were cotransfected by the calcium phosphate procedure with DNA from plasmids pBC12/CMV/t2 (coding for Tat function, 0.20 μg/well) and pBC12/HIV/SeAP (0.40 μg/well). Cells and DNAs were kept in contact for 6.0 h; then the medium was aspirated and replaced by 500 μL of medium containing the test compound. The compound-treated cells were then incubated for additional 48 h. At the end of incubation, an aliquot of cell culture medium was removed and SeAP activities were analyzed by spectrametric method.^20 The sample of culture medium were heated at 65° C. for 5.0 min to inactivate endogenous phosphatases selectively (SeAP is thermal stable). The buffer solution of 2×SeAP (100 μL, 1.0 M diethanolamine, pH 9.8; 0.50 mM MgCl2; 10 mM L-homoarginine) was added to the culture medium sample (100 μL) in a 96-well flat-bottom culture dish (Corning). Then, the substrate solution ([…], 120 mM, p-nitrophenyl phosphate dissolved in 1×SeAP buffer) was dispensed into each well containing the reaction mixture. The absorbance at wavelength 405 nm specific for the hydrolysis product was read at 2.5 min intervals at 37° C. over the course of 60 min on an EL340i microplate reader (Bio-tek Instruments) with 5 s automatic shaking before each reading.
Two plasmid constructs^19 were used to test the effect of synthesized NDGA derivatives on Tat-regulated HIV transactivation as described previously.^12,13,19 The plasmid constructs included a cytomegalovirus (CMV) promoter driven tat gene and SP1 regulated HIV LTR promoter driven reporter gene (i.e., SeAP). A standard SeAP assay in the absence of drug was initially run to find out efficiency of transfection.

A word on the IC50: it is the concentration that inhibits the measured activity by half. `C[C@H](Cc1ccc(OCCN2CCCCC2)c(OCCN2CCCCC2)c1)[C@@H](C)Cc1ccc(OCCN2CCCCC2)c(OCCN2CCCCC2)c1` [Compound 5b, meso-2,3-Dimethyl-1,4-bis(3,4-[2-(piperidino)ethoxyphenyl])butane Tetrakishydrochloride Salt]: the “Inhibition of rapidly dividing Vero cells” value in data set [1] (FIG. 11) is recorded as “extremely effective”. Besides, the “Inhibition of stationary phase vero cells” value in data set [1] (FIG. 11A) was “much less so”. For the same molecule, the “Mice weakly infected with HSV-2” value in data set [2] (10 mM P4N in PBS, local, female CF-1 mice, 10 per group, day 3 vaginal lavage) is 2 of 10. Further, the “Average scale of vaginal HSV-2 infection (cytopathic effect score)” value in data set [2] (10 mM P4N, 2.43 in the absence of P4N) is reported as 0.19. Besides, the values for the Toxicity in animals entry in data set [2] and in data set [2] (listed as P4N) were “no apparent sign of toxicity” and “little or no toxicity”, respectively. Besides, in data set [3], the “Binding to the DNA (1D NMR titration)” value is “micro-molar range”. Besides, the “Effect on the growth of the cos cells” value in data set [4] is recorded as “no effect”. Also, the “Inhibition (%) of HIV Tat-regulated Transactivation in COS Cells” value was found to be 8.7% in data set [5] (0.10 μM); 4.3% in data set [5] (0.25 μM); 29.0% in data set [5] (0.50 μM); 56.8% in data set [5] (1.0 μM); 90.6% in data set [5] (2.5 μM); 97.0% in data set [5] (5.0 μM). In addition, the “Inhibition (%) of HIV Tat-regulated Transactivation in COS Cells” value in data set [5] (10 μM) stood at 99.8%; in data set [5] (20 μM), 100%; in data set [5] (40 μM) it was 100%; in data set [5] (80 μM) it was 100%; in data set [5] (100 μM) it was 97.7%. Further, the IC50 in data set [5] (COS cells, SeAP, mean of triplicate determinations, read-out: IC50, HIV Tat-regulated transactivation) stood at 880 nM. Besides, the “HIV transactivation at the concentration without effect on cos cell growth” value in data set [5] (≦1 μM, FIG. 9) is “fully inhibited”.
